“Also recorded” adds a separate entry of the source. Read-outs that look alike come from different tables or passages of the source.
Tests used:
[1] = system: LO-2 cells; assay: CCK-8 cell viability, LO-2 normal liver cells; format: cell-based; details: Homo sapiens, L02, LO-2 normal liver cell line, read-out: Cellular Antiproliferative Activity (IC50, μM) LO-2
Method: (§1) All the cell viability assays were performed according to the CCK-8 method. The cells were seeded at a density of 5 to 8 × 10^4 cells/mL in 96-well plates in growth medium supplemented with 10% serum at 37 °C with 5% CO2 for one day. After 12 h of incubation, 100 μL of medium was removed, and 100 μL of sample solution with different concentrations of inhibitor was added and then the cells were incubated for 48 or 72 h. Subsequently, 10 μL of CCK-8 reagent (Biotool Company, Kirchberg, Switzerland, 5.0 mg/mL) dissolved in phosphate-buffered saline (PBS) was added and the cells were incubated for another 4 h. The absorbance was read at 450 nm with a microplate reader (Thermo Fisher Scientific, Waltham, MA, USA). The data were calculated using GraphPad Prim version 5.0.

[2] = system: HCC827 cells; assay: CCK-8 cell viability, HCC827; format: cell-based; details: Homo sapiens
Method: as §1

[3] = system: H1299 cells; assay: CCK-8 cell viability, H1299; format: cell-based; details: Homo sapiens, NCI-H1299, H1299 (wild-type), read-out: Cellular Antiproliferative Activity (IC50, μM) H1299
Method: as §1

[4] = system: A431 cells; assay: Intracellular ROS generation (DCFH-DA), A431; format: cell-based, human; details: A431, 24 h
Method: (§2) The human H1975 and A431 cells at a density of approximately 2 × 10^5 cells/well were plated in a 6-well plate and then treated with different concentrations of inhibitors for 24 h. Then the cells were harvested, resuspended in 1 mL of DCFH-DA ([…]), and the levels of ROS were determined by flow cytometry (Becton-Dickinson, Franklin Lakes, NJ, USA).

[5] = system: A549 cells; assay: CCK-8 cell viability, A549; format: cell-based; details: Homo sapiens
Method: as §1

[6] = system: A431 cells; assay: CCK-8 cell viability, A431; format: cell-based; details: Homo sapiens
Method: as §1

[7] = system: H1975 cells; assay: Intracellular ROS generation (DCFH-DA), H1975; format: cell-based, human; details: H1975, 24 h
Method: as §2

[8] = system: H1975 cells; assay: CCK-8 cell viability, H1975; format: cell-based; details: Homo sapiens, NCI-H1975, H1975 (EGFR T790M), read-out: Cellular Antiproliferative Activity (IC50, μM) H1975
Method: as §1

[9] = system: LoVo cells; assay: CCK-8 cell viability, LoVo; format: cell-based; details: Homo sapiens
Method: as §1

[10] = system: HBE cells; assay: CCK-8 cell viability, HBE normal bronchial cells; format: cell-based; details: HBE normal human bronchial cell line, read-out: Cellular Antiproliferative Activity (IC50, μM) HBE
Method: as §1

[11] = system: H1975 cells; assay: Cell cycle analysis, PI flow cytometry, H1975; format: cell-based, human; details: H1975, 200 nM, 48 h, cell cycle phase
Method: (§3) The H1975 and A431 cells at a density of approximately 2 × 10^5 cells/well were incubated in 6-well plates, treated with different concentrations of inhibitors for 48 h, collected and fixed with 70% ethanol at 4 °C overnight. After fixation, the cells were washed with PBS and stained with propidium iodide (PI) for 10 min under subdued light. Stained cells were analyzed by flow cytometry assay (Becton-Dickinson, Franklin Lakes, NJ, USA).

[12] = target: T1, wild-type EGFR (Homo sapiens, UniProt P00533); assay: EGFR kinase enzymatic assay (ADP-Glo), wild-type; format: biochemical; details: read-out: EGFR (IC50, nM) WT
T1 construct: purchased Promega Corporation V3831
Method: (§4) The experiments were performed according to the instructions of the manufacturer. […] The test was performed in a 384-well plate, and includes the major steps below: (1) perform a 5 μL kinase reaction using 1× kinase buffer (e.g., 1× reaction buffer A); (2) incubate at room temperature for 60 min; (3) add 5 μL of ADP-Glo™ Reagent to stop the kinase reaction and deplete the unconsumed ATP, leaving only ADP and a very low background of ATP; (4) incubate at room temperature for 40 min; (5) add 10 μL of Kinase Detection; (6) reagent to convert ADP to ATP and introduce luciferase and luciferin to detect ATP; (7) incubate at room temperature for 30 min; (8) plate was measured on TriStar® LB942 Multimode Microplate Reader (BERTHOLD TECHNOLOGIES GmbH & Co. KG., Bad Wildbad, Germany) to detect the luminescence (Integration time 0.5–1 s). Curve fitting and data presentations were performed using GraphPad Prism version 5.0 (GraphPad Software, Inc.).

[13] = system: H1975 cells; assay: Cell apoptosis, Annexin V-FITC/PI flow cytometry, H1975; format: cell-based, human; details: 48 h
Method: The H1975 and A431 cells (1 to 5 × 10^5 cells/well) incubated in 6-well plates were treated by different concentrations of inhibitors for 48 h. Then, they were collected and fixed with 70% ethanol at 4 °C overnight. After beening fixed with […], the cells were stained with Annexin V-FITC (5 μL)/propidium iodide (5 μL) and analyzed by flow cytometry assay (Becton-Dickinson, Franklin Lakes, NJ, USA).

[14] = system: H1975 cells; assay: AO/EB and DAPI staining, H1975; format: cell-based, human; details: H1975, AO/EB or DAPI staining, 48 h
Method: (§5) Approximately 2 × 10^5 cells/well of A431 and H1975 cells in 6-well plates were incubated in an incubator for 48 h, then treated with different concentrations of inhibitors for 48 h. After incubation, the cells were washed with PBS twice. Then, total of 20 μL of the solution containing the AO/EB dye mix (1.0 μg/mL of AO and 1.0 μg/mL of EB in PBS) was added to the cells. The apoptotic, necrotic, and live cells were observed and counted under the fluorescent microscope (OLYMPUS, Tokyo, Japan). DAPI staining was performed after being treated as mentioned above. The cells plated in 6-well plates were washed twice with PBS and fixed with 10% formaldehyde for 10 min, then washed with PBS three times. Cells were subsequently incubated in DAPI (1.0 μg/mL) solution at room temperature for 10 min, washed with PBS and examined under a fluorescence microscope (OLYMPUS).

[15] = system: A431 cells; assay: AO/EB and DAPI staining, A431; format: cell-based, human; details: A431, AO/EB or DAPI staining, 48 h
Method: as §5

[16] = In vivo blood sugar test (rat oral glucose tolerance); details: healthy male SD rats, 50 mg/kg (HBr form), up to 12 h
Method: The Roche Accu-chek® Go blood meter was used for the determination of glucose concentration. Before testing, standard set-up of blood meter was performed according to the instrument’s specifications. […] Water was allowed ad libitum throughout the study. Rats were orally given compound DY3002 (50 mg/kg) and a vehicle. For the oral study, the compounds were formulated as a solution (Solutol HS15: NS = 30:70, v:v). Sampling occurred prior to dosing and at 7–9 different time points up to 12 h. Concentration of glucose in the blood was determined by blood meter.

[17] = target: T2, EGFR L858R/T790M (Homo sapiens, UniProt P00533, L858R/T790M); assay: EGFR kinase enzymatic assay (ADP-Glo), L858R/T790M mutant; format: biochemical
T2 construct: purchased Promega Corporation V5324
Method: as §4, with “Concentrations consisting of suitable levels from 0.1 to 100 nM were used for all of the tested compunds. The experiments” for “The experiments”

[18] = system: A431 cells; assay: Cell apoptosis, Annexin V-FITC/PI flow cytometry, A431; format: cell-based, human; details: 48 h
[19] = system: A431 cells; assay: Cell cycle analysis, PI flow cytometry, A431; format: cell-based, human; details: 48 h
Method: as §3

[20] = system: H1975 cells; assay: Wound healing and transwell assays, H1975; format: cell-based, human
Method: (§6) The cancer cells were cultured in 6-well plates for 48 h at 37 °C. Wounds were created in the cell monolayer and washed with PBS to remove cell debris, then the cells were treated with different concentrations of inhibitor for 48 h. After that, the dead cells were washed away with PBS, and the images were taken by the fluorescence microscope (OLYMPUS).
(§7) Cell migration assay was evaluated by using Boyden chambers containing a transwell membrane filter with an 8 μm size pore (Corning Costa Corp, Cambridge, MA, USA). Prior to the invasion assay, the filter membrane was coated with 60 μL of Matrigel (BD Biosciences, Billerica, MA, USA) at a 1:8 dilution and rehydrated by adding […] serum-free medium to the apical side of the chamber at 37 °C for 0.5 h. The cells (2 × 10^5 cells/well for invasion assay) were seeded to the apical side of the chamber with 200 μL medium with different concentrations of inhibitors, and the basolateral side of the chamber was filled with 600 μL medium containing 10% FBS. After 24 h at 37 °C, the cells adherent to the upper surface of the filter were swept by cotton swabs, then fixed with methanol, stained with crystal violet, and the cells were counted under a microscope in five random fields, irrespective of staining intensity. The images were taken by the fluorescence microscope (OLYMPUS).

[21] = system: A431 cells; assay: Wound healing and transwell assays, A431; format: cell-based, human
Method: as §6, §7

[22] = high dose, patients in clinical trials; cited from earlier work
[23] = HCC827 (EGFR del E746_A750), CCK-8, read-out: Cellular Antiproliferative Activity (IC50, μM) HCC827
[24] = A549 (wild-type and k-ras), CCK-8, read-out: Cellular Antiproliferative Activity (IC50, μM) A549
[25] = A-431, A431 (wild-type), CCK-8, read-out: Cellular Antiproliferative Activity (IC50, μM) A431
[26] = CCK-8, read-out: Cellular Antiproliferative Activity (IC50, μM) LoVo

Structure (SMILES) | IC50 [1] [µM] | IC50 [3] [µM] | effect on ROS generation [4] | effect on ROS generation [7] | IC50 [8] [µM] | IC50 [10] [µM] | Apoptosis rate (%) ([13]; H1975, 200 nM) | IC50 [2, 23] [µM] | IC50 [5, 24] [µM] | IC50 [6, 25] [µM] | Apoptosis rate (%) ([18]; A431, 1 μM) | IC50 [9, 26] [µM] | other results
C=CC(=O)Nc1cc(Nc2nccc(-c3cn(C)c4ccccc34)n2)c(OC)cc1N(C)CCN(C)C [Osimertinib, osimertinib] | 4.56 | 7.49 | […] | […] | 0.087 | 8.39 | – | – | – | – | – | – | IC50 ([2]; HCC827, read-out: Cellular Antiproliferative Activity (IC50, μM) HCC827): 0.0102 µM; IC50 ([5]; A549, read-out: Cellular Antiproliferative Activity (IC50, μM) A549): 7.28 µM; IC50 ([6]; A-431, read-out: Cellular Antiproliferative Activity (IC50, μM) A431): […]; IC50 ([9]; read-out: Cellular Antiproliferative Activity (IC50, μM) LoVo): 4.85 µM
C=CC(=O)Nc1cccc(Nc2nc(Nc3ccc(CN4CCOCC4)cc3)ncc2Cl)c1 [DY3002, N-(3-((5-chloro-2-(4-((1-morpholino)methyl)phenylamino)-4-pyrimidinyl)amino)phenyl)acrylamide] | 4.24 | 4.12 | effectively inhibited ROS generation | effectively inhibited ROS generation | 0.037 | > 40 | 72.0 | 0.0104 | 4.45 | 0.382 | 50.8 | 2.46 | G0/G1 [11]: 91.33%; S [11]: 5.67%; IC50 [12]: 449 nM; Apoptosis rate (%) ([13]; H1975, 100 nM): 25.7%; Apoptosis rate (%) ([13]; H1975, 400 nM): 90.1%; apoptotic morphology [14]: striking nuclear condensation, membrane blebbing, nuclear fragmentation, and apoptotic bodies; apoptotic morphology [15]: striking nuclear condensation, membrane blebbing, nuclear fragmentation, and apoptotic bodies; hyperglycemia (blood glucose concentration versus control group) [16]: did not result in hyperglycemia; also recorded: did not yield hyperglycemia; also recorded: no hyperglycemia side effects; IC50 ([17]; EGFR L858R/T790M, ADP-Glo kinase assay): 0.71 nM; SI(WT:L858R/T790M) ([17]; selectivity index, IC50 WT / IC50 L858R/T790M): 632.0; Apoptosis rate (%) ([18]; A431, 0.5 μM): 46.1%; Apoptosis rate (%) ([18]; A431, 2 μM): 61.6%; G0/G1 ([19]; A431, 2 μM, cell cycle phase): 75.87%; cell-cycle arrest ([19]; A431, 0.5, 1 and 2 μM): G0/G1 arrest; inhibition of cell migration [20]: strongly inhibit migration; inhibition of cell migration [21]: only moderately interfered
COc1cc2ncnc(Nc3ccc(F)c(Cl)c3)c2cc1OCCCN1CCOCC1 [Gefitinib, gefitinib, reference compound] | – | – | – | – | – | – | 4.6 | – | – | – | – | – | –
C=CC(=O)Nc1cccc(Nc2nc(Nc3ccc(N4CCN(C(C)=O)CC4)cc3OC)ncc2C(F)(F)F)c1 [Rociletinib, rociletinib] | 8.57 | 20.1 | effectively inhibited ROS generation | effectively inhibited ROS generation | 0.137 | > 40 | 65.2 | 0.0181 | 6.5 | 1.29 | 54.5 | 20.1 | side effect in patients [22]: hyperglycemia
